Patent publication US4968717A, “Phenylacetonitriles which are substituted by basic groups, their preparation and drugs containing these substances” (BASF Aktiengesellschaft, priority 1986, dated 1990)

Experiments:
[1] = system: serotonin-induced increase in blood pressure; experiment: inhibition of the serotonin-induced increase in blood pressure in the pithed rat on intravenous administration; assay type: in vivo, male Sprague-Dawley rats; conditions: for ED50: read-out: ED 50% (dose which inhibits the serotonin-induced increase in blood pressure by 50%)
Excerpt: Pithing is effected by means of a rod through the orbit. […] The criterium for effectiveness of a substance is the relative inhibition (Δ%) of the serotonin-induced increase in blood pressure (ΔmmHg). The valuation was effected quantitatively as an analysis of the linear regression (y=a+b x) of log dose (mg/kg) and relative inhibition (Δ%) of the serotonin-induced increase in blood pressure.

serotonin = conditions: literature; versus known serotonin antagonists; cited from earlier work
[2] = serotonin 0.0215 mg/kg i.v., linear regression of log dose and relative inhibition

Molecule	ED50 [1, 2] [mg/kg]	further results
COc1cc(C(C#N)(CCCN(C)CCc2ccccc2)C(C)C)cc(OC)c1OC (stereo not shown) [Example 60, 5-[(phenethyl)-methylamino]-2-(3,4,5-trimethoxyphenyl)-2-isopropylvaleronitrile]	0.0464	–
COc1cc(OC)cc(C(C#N)(CCCN(C)CCc2ccccc2)C(C)C)c1 (stereo not shown) [Example 5, 5-[(Phenethyl)methylamino]-2-(3,5-dimethoxyphenyl)-2-isopropylvaleronitrile]	0.0464	–
COc1cccc(CCN(C)CCCC(C#N)(c2cc(OC)c(OC)c(OC)c2)C(C)C)c1 (stereo not shown) [Example 36, 5-[(3-methoxyphenethyl)-methylamino]-2-(3,4,5-trimethoxyphenyl)-2-isopropylvaleronitrile]	0.0464	–
COc1cc(OC)cc(C(C#N)(CCCN(C)CCc2cccc(C(F)(F)F)c2)C(C)C)c1 (stereo not shown) [Example 8, 5-[(3-Trifluoromethylphenethyl)-methylamino]-2-(3,5-dimethoxyphenyl)-2-isopropylvaleronitrile]	0.0499	–
COc1cccc(CCN(C)CCCC(C#N)(c2ccc(OC)c(OC)c2)C(C)C)c1 (racemic) [Example 57, (RS)-5-[(3-methoxyphenethyl)-methylamino]-2-(3,4-dimethoxyphenyl)-2-isopropylvaleronitrile]	0.0423	–
COc1cc(C(C#N)(CCCN(C)CCc2cccc(C(F)(F)F)c2)C(C)C)cc(OC)c1OC (stereo not shown) [Example 61, 5-[(3-trifluoromethylphenethyl)-methylamino]-2-(3,4,5-trimethoxyphenyl)-2-isopropylvaleronitrile]	0.0681	–
C=CCC(C#N)(CCCN(C)CCc1cccc(OC)c1)c1cccc(Cl)c1 (stereo not shown) [Example 32, 5-[(3-methoxyphenethyl)-methylamino]-2-(3-chlorophenyl)-2-allylvaleronitrile]	0.316	–
COc1cc(CCN(C)CCCC(C#N)(c2cccc(OC)c2)C(C)C)cc(OC)c1 (stereo not shown) [Example 1, 5-[(3,5-Dimethoxyphenethyl)-methylamino]-2-(3-methoxyphenyl)-2-isopropylvaleronitrile]	0.0464	–
COc1cc(C(C#N)(CCCN(C)CCc2cccc([N+](=O)[O-])c2)C(C)C)cc(OC)c1OC (stereo not shown) [Example 37, 5-[(3-nitrophenethyl)-methylamino]-2-(3,4,5-trimethoxyphenyl)-2-isopropylvaleronitrile]	0.0464	–
CCOc1cc(CCN(C)CCCC(C#N)(c2cc(OC)cc(OC)c2)C(C)C)cc(OCC)c1 (stereo not shown) [Example 19, 5-[(3,5-diethoxyphenethyl)-methylamino]-2-(3,5-dimethoxyphenyl)-2-isopropylvaleronitrile]	0.1	–
COc1cc(C(C#N)(CCCN(C)CCc2cccc(Cl)c2)C(C)C)cc(OC)c1OC (stereo not shown) [Example 38, 5-[(3-chlorophenethyl)-methylamino]-2-(3,4,5-trimethoxyphenyl)-2-isopropylvaleronitrile]	0.0681	–
COc1cc(CCN(C)CCCC(C#N)(C(C)C)C2CCc3ccccc3C2)cc(OC)c1 (stereo not shown) [Example 43, 5-[(3,5-dimethoxyphenethyl)-methylamino]-2-(1,2,3,4-tetrahydronaphth-2-yl)-2-isopropylvaleronitrile]	0.215	–
CCOc1cccc(C(C#N)(CCCN(C)CCc2cc(OC)cc(OC)c2)C(C)C)c1 (stereo not shown) [Example 17, 5-[(3,5-dimethoxyphenethyl)-methylamino]-2-(3-ethoxy-phenyl)-2-isopropylvaleronitrile]	0.1	–
CCOc1cccc(C(C#N)(CCCN(C)CCc2ccc(OC)c(OC)c2)C(C)C)c1 (stereo not shown) [Example 44, 5-[(3,4-dimethoxyphenethyl)-methylamino]-2-(3-ethoxy-phenyl)-2-isopropylvaleronitrile]	0.0464	–
COc1cc(CCN(C)CCCC(C#N)(c2ccc(Cl)c(Cl)c2)C(C)C)cc(OC)c1 (stereo not shown) [Example 41, 5-[(3,5-dimethoxyphenethyl)-methylamino]-2-(3,4-dichlorophenyl)-2-isopropylvaleronitrile]	0.1	–
COc1cc(CCN(C)CCCC(C#N)(c2ccc(Cl)cc2)C(C)C)cc(OC)c1 (stereo not shown) [Example 42, 5-[(3,5-dimethoxyphenethyl)-methylamino]-2-(4-chlorophenyl)-2-isopropylvaleronitrile]	> 0.0464	relative inhibition (Δ%) of the serotonin-induced increase in blood pressure ([1]; at dose 0.0464 mg/kg): 19%
COc1ccc(C(C#N)(CCCN(C)CCc2ccc(Cl)c(Cl)c2)C(C)C)cc1OC (stereo not shown) [Example 40, 5-[(3,4-dichlorophenethyl)-methylamino]-2-(3,4-dimethoxyphenyl)-2-isopropylvaleronitrile]	0.1	–

Molecule	ED50 [1, 2] [mg/kg]	further results
CCOc1cc(CCN(C)CCCC(C#N)(c2ccccc2)C(C)C)cc(OCC)c1 (stereo not shown) [Example 24, 5-[(3,5-diethoxyphenethyl)-methylamino]-2-phenyl-2-isopropylvaleronitrile]	0.1	–
COc1cc(OC)cc(C(C#N)(CCCN(C)CCc2ccc3c(c2)OCO3)C(C)C)c1 (stereo not shown) [Example 27, 5-[(3,4-methylenedioxyphenethyl)-methylamino]-2-(3,5-dimethoxyphenyl)-2-isopropylvaleronitrile]	0.0464	–
COc1cccc(CCN(C)CCCC(C#N)(c2cccc(OC)c2)C(C)C)c1 (stereo not shown) [Example 4, 5-[(3-Methoxyphenethyl)-methylamino]-2-(3-methoxy-phenyl)-2-isopropylvaleronitrile]	0.0318	–
COc1cccc(CCN(C)CCCC(C#N)(c2cc(OC)cc(OC)c2)C(C)C)c1 (stereo not shown) [Example 2, 5-[(3-Methoxyphenethyl)-methylamino]-2-(3,5-dimethoxyphenyl)-2-isopropylvaleronitrile]	0.073	–
COc1cccc(CCN(C)CCCC(C#N)(c2ccccc2)C(C)C)c1 (stereo not shown) [Example 13, 5-[(3-methoxyphenethyl)-methylamino]-2-phenyl-2-isopropylvaleronitrile]	0.0464	–
COc1cccc(C(C#N)(CCCN(C)CCc2ccccc2)C(C)C)c1 (stereo not shown) [Example 3, 5-[(Phenethyl)-methylamino]-2-(3-methoxyphenyl)-2-isopropylvaleronitrile]	0.0464	–
COc1cccc(CCN(C)CCC[C@@](C#N)(c2ccc(OC)c(OC)c2)C(C)C)c1 [Example 58, (S)-5-[(3-methoxyphenethyl)-methylamino]-2-(3,4-dimethoxyphenyl)-2-isopropylvaleronitrile]	0.0201	–
COc1ccc(CCN(C)CCCC(C#N)(c2ccc(OC)c(OC)c2)C(C)C)cc1OC (stereo not shown) [Verapamil]	–	antiserotonin action compared with known serotonin antagonists (serotonin): not very pronounced
COc1cc(CCN(C)CCCC(C#N)(c2cc(OC)cc(OC)c2)C(C)C)cc(OC)c1 (stereo not shown) [Example 59, 5-[(3,5-dimethoxyphenethyl)-methylamino]-2-(3,5-dimethoxyphenyl)-2-isopropylvaleronitrile]	0.0464	–
COc1cc(OC)cc(C(C#N)(CCCN(C)CCc2ccc(Cl)c(Cl)c2)C(C)C)c1 (stereo not shown) [Example 7, 5-[(3,4-Dichlorophenethyl)-methylamino]-2-(3,5-dimethoxyphenyl)-2-isopropylvaleronitrile]	0.1	–
COc1cc(OC)cc(C(C#N)(CCCN(C)CCc2ccc(C)c(C)c2)C(C)C)c1 (stereo not shown) [Example 20, 5-[(3,4-xylylethyl)-methylamino]-2-(3,5-dimethoxyphenyl)-2-isopropylvaleronitrile]	0.1	–
COc1ccc(CCN(C)CCCC(C#N)(c2cc(OC)c(OC)c(OC)c2)C(C)C)cc1OC (stereo not shown) [Gallopamil, reference compound]	0.1	relative inhibition (Δ%) of the serotonin-induced increase in blood pressure ([1]; at dose 0.1 mg/kg): 22%; antiserotonin action compared with known serotonin antagonists (serotonin): not very pronounced
COc1cc(C(C#N)(CCCN(C)CCc2ccc3c(c2)COCO3)C(C)C)cc(OC)c1OC (stereo not shown) [Example 39, 5-[(1,3-benzodioxan-6-ylethyl)-methylamino]-2-(3,4,5-trimethoxyphenyl)-2-isopropylvaleronitrile]	0.0395	–
5-[(3,5-dimethoxyphenethyl)-methylamino]-2-(β,β,β-trifluoroethoxyphenyl)-2-isopropylvaleronitrile [Example 30]	–	ED 50% (dose which inhibits the serotonin-induced increase in blood pressure by 50%) [1, 2]: 0.1 mg/kg
C=CCC(C#N)(CCCN(C)CCc1ccccc1)c1cccc(Cl)c1 (stereo not shown) [Example 31, 5-[(phenethyl)-methylamino]-2-(3-chlorophenyl)-2-allylvaleronitrile]	0.464	–
COc1cc(OC)cc(C(C#N)(CCCN(C)CCc2ccc(Cl)cc2)C(C)C)c1 (stereo not shown) [Example 6, 5-[(4-Chlorophenethyl)-methylamino]-2-(3,5-dimethoxyphenyl)-2-isopropylvaleronitrile]	0.1	–
COc1cc(CCN(C)CCCC(C#N)(c2ccccc2)C(C)C)cc(OC)c1 (stereo not shown) [Example 14, 5-[(3,5-dimethoxyphenethyl)-methylamino]-2-phenyl-2-isopropylvaleronitrile]	0.0464	–
